Measurements reported in patent US20020034725A1, “SENSITIZATION OF CELLS TO RADIATION AND AND CHEMOTHERAPY” (priority 1996, published 2002).

Columns and labels:
H-ras = conditions: cited from earlier work
FTase = FTase (Homo sapiens, UniProt P49354+P49356); conditions: cited from earlier work
H-ras^v12 = assay: Western blot of H-ras farnesylation in H-ras transformed REF cells (3.7, 4R, 5R); format: cell-based, rat; conditions: 5R cells, dose of 32 μM
From the text: (§1) The oncogene-transfected cells used in this study were all derived from early passage rat embryo fibroblast (REF) by transfection with the pEJ plasmid containing the H-ras gene isolated from the EJ bladder carcinoma. This vector was introduced by calcium phosphate DNA transfer into primary REF, either alone or together with the pMC29 vector containing v-myc. One clone containing both the introduced H-ras gene and the v-myc genes is 3.7 (McKenna et al., 1990, Cancer Res. 50:97-102). 4R and 5R cells were obtained as rare transformants after transfection with the pEJ plasmid alone (McKenna et al., 1993, supra). MR4 cells were immortalized by transfection with an expression vector comprising v-myc linked to a neomycin-resistant selectable marker (McKenna et al., 1991, Radiat. Res. 125:283-287). REF-GG cells were obtained by transforming REF cells with a chimeric H-ras(v12) in which the CAAX motif is CVLL. All cell lines were mycoplasma free.
(§2) Cells were lysed in culture dishes with 1 x reducing Laemmli sample buffer. Samples were boiled, sheared and clarified by centrifugation at 14,000 rpm in a microfuge before storage at −20° C. Samples containing equal amounts of protein were separated on a 12% SDS polyacrylamide gel and electrophoretically transferred to nitrocellulose membranes. Membranes were blocked for 1-2 hours in PBS containing 0.1% Tween-20 and 5% powdered milk before antibody addition. Membranes were probed with monoclonal pan-ras antibody AB-4 (Oncogene Science, Uniondale, N.Y.) at a concentration of 0.5 μg/ml, or with monoclonal H-ras antibody LA069 (1:5000 dilution; Quality Biotech, Camden, N.J.). Detection of protein was accomplished using the ECL chemiluminescence kit (Amersham, Arlington Heights, Ill.). Images were digitized using an Arcus II scanner, and figures were assembled using Adobe Photoshop 3.0.
Transformed REF cells derived from the R5 cell line were treated with 5 μm FTI-277 to establish a time course for the accumulation of unfarnesylated H-ras. Prenylated forms of ras migrate more rapidly than unprenylated ras on SDSpolyacrylamide gels (Gutierrez et al., 1989, EMBO J. 8:1093-1098; Farh et al., 1995, Arch. Biochem. Biophys. 18:113-121). This shift in motility was used to assess the prenylation status of H-ras after farnesyltransferase inhibitor treatment.

Rap1A = conditions: cited from earlier work; for inhibition of Rap1A processing: whole cells
wild type c-H-ras = assay: Western blot of ras farnesylation in untransformed REF and MR4 cells; format: cell-based, rat; conditions: MR4 cells
From the text: as §1, §2

H-ras^v12 CVLL = assay: Western blot of prenylation of chimeric H-ras in REF-GG cells; format: cell-based, rat; conditions: 24 hours, preliminary results
From the text: as §1
Cells were lysed in culture dishes with 1 x reducing Laemmli sample buffer. Samples were boiled, sheared and clarified by centrifugation at 14,000 rpm in a microfuge before storage at −20° C. Samples containing equal amounts of protein were separated on a 12% SDS polyacrylamide gel and electrophoretically transferred to nitrocellulose membranes. […]

GGTase I = GGTase I (Homo sapiens, UniProt P49354+P53609); conditions: cited from earlier work
K-ras = assay: Western blot of K-ras prenylation in SW480 and Panc-1 cells; format: cell-based, human; conditions: 8 μM GGTI-298 alone
Experimental: FIG. 17A is an image of a Western blot depicting inhibition by FTI-277 of K-ras prenylation in human SW480 colon carcinoma cells. SW480 cells were treated with the indicated concentrations of FTI-277 (μM) for 48 hours. Samples were harvested and cell lysates were analyzed by Western blotting using either a H-ras monoclonal antibody (top) or a K-ras monoclonal antibody (bottom). Arrows indicate unfarnesylated ras bands.
FIG. 18A is an image of a Western blot depicting the specific inhibition of K-ras prenylation by combined FTI-277 and GGTI-298 treatment. Log phase cultures of human pancreatic carcinoma cells (Panc-1) and colon carcinoma cells (SW480) were treated with 5 μM FTI and 8 μM GGTI 298 for 48 hours. Cell samples were then harvested and cell lysates were prepared for Western blot analysis using monoclonal antibodies to K-ras and nuclear lamin B. The electrophoretic mobility of the K-ras mutant in SW480 is slower than that of the mutant K-ras in Panc-1 cells.

REF-GG cells = assay: SF2 by limiting dilution analysis of clonogens; format: cell-based, rat; conditions: 8 μM GGTI-298
Experimental: FIG. 14B comprises two graphs depicting clonogenic survival of REF-GG cells following treatment with GGTI-298 and irradiation. REF-GG cells were plated at 1 to 5 cells per well in microtiter plates in the absence (top panel) or presence (bottom panel) of 8 μM of the geranylgeranyltransferase inhibitor, GGTI-298. Cells were then irradiated with 2 Gray or were mock irradiated. Cells were re-fed after 24 hours with medium that contained no inhibitor, thus diluting the inhibitor to 0.8 μM. These cells were then incubated for two weeks prior to scoring for colony formation. The data are presented as the natural log of the fraction of negative wells. The surviving fraction at 2 Gray was determined from the differences in the slopes obtained by linear regression of analysis of irradiated and unirradiated cells. The surviving fraction at 2 Gray calculated for cells irradiated after GGTI-298 treatment was 0.64. Control cell surviving fraction after 2 Gray was 0.91. The correlation coefficient for linear regression analysis (r^2) was greater than 0.95 in all cases.
Cells were irradiated with the indicated doses of ionizing radiation and were treated with FTI-277 for 24 hours after irradiation (FIG. 14A). […] The shoulders of the survival curves were reduced as were the overall slopes of the survival curves. […]

2-hydroxyfarnesylphosphonic acid
H-Ras processing (H-ras): inhibits H-Ras processing | FTase inhibition (FTase): inhibit FTase

COC(=O)[C@H](CCSC)NC(=O)[C@H](/C=C\[C@@H](/C=C/[C@@H](N)CS)C(C)C)Cc1ccccc1 [B1086]
FTase inhibition (FTase): capable of inhibiting FTase

CSCC[C@H](NC(=O)c1ccc(NC[C@@H](N)CS)cc1)C(=O)O [FTI-249]
FTase inhibition (FTase): potent FTase inhibitor

CSCC[C@H](NC(=O)c1ccc(NC[C@@H](N)CS)cc1-c1ccccc1)C(=O)O [FTI-276]
FTase inhibition (FTase): inhibited Ftase activity

COC(=O)[C@H](CC(C)C)NC(=O)c1ccc(NC[C@@H](N)CS)cc1-c1ccccc1 [GGTI-286]
inhibition of farnesylated H-ras^v12 (CVLS) (H-ras^v12): only partially inhibited | inhibition of Rap1A processing (Rap1A): potent inhibitor of posttranslational processing of Rap1A | migration of endogenous wild-type c-H-ras (wild type c-H-ras): no effect on the migration of this protein | lowest dose with effective inhibition of geranylgeranylation of chimeric H-ras^v12 (H-ras^v12 CVLL): 4 µM

CC(C)C[C@H](NC(=O)c1ccc(NC[C@@H](N)CS)cc1-c1ccccc1)C(=O)O [GGTI-287]
increase in potency of inhibition of GGTase I (GGTase I; relative to GGTI-279): 20 fold | increase in potency of inhibition of FTase (FTase; relative to GGTI-279): 20 fold

CC(C)C[C@H](NC(=O)c1ccc(NC[C@@H](N)CS)cc1-c1cccc2ccccc12)C(=O)O [GGTI-297]
GGTase I inhibition (GGTase I): inhibitors of GGTase I and FTase | potency, less potent than GGTI-287 (GGTase I): 10 fold | selectivity for GGTase I over FTase (GGTase I; in vitro): 5 fold | FTase inhibition (FTase): inhibitors of GGTase I and FTase

COC(=O)[C@H](CC(C)C)NC(=O)c1ccc(NC[C@@H](N)CS)cc1-c1cccc2ccccc12 [GGTI-298]
prenylation of K-ras (K-ras): no effect on prenylation of K-ras | GGTase I inhibition (GGTase I): inhibitors of GGTase I and FTase | SF2 (surviving fraction at 2 Gray) (REF-GG cells): 0.64 | Rap1A protein processing (Rap1A; concentration of 10 μM): completely inhibiting Rap1A protein processing | inhibition of Rap1A processing (Rap1A): as potent as GGTI-286 | H-ras processing (H-ras; concentration of 10 μM): without affecting H-ras processing | FTase inhibition (FTase): inhibitors of GGTase I and FTase

CC[C@H](C)[C@@H](CO[C@@H](Cc1ccccc1)C(=O)N[C@@H](CCS(C)(=O)=O)C(=O)OC)NC[C@@H](N)CS [L-739,749]
FTase inhibition (FTase): very potent inhibitors of FTase

CC[C@H](C)[C@@H](CO[C@@H](Cc1ccccc1)C(=O)N[C@@H](CCS(C)(=O)=O)C(=O)O)NC[C@@H](N)CS [L-739,750]
FTase inhibition (FTase): very potent inhibitors of FTase

CC[C@H](C)[C@@H](CO[C@@H](Cc1ccccc1)C(=O)N[C@@H](CCS(C)(=O)=O)C(=O)OC(C)C)NC[C@@H](N)CS [L-744,832]
farnesylation of endogenous H-ras (wild type c-H-ras; highest dose used): less susceptible to farnesylation inhibition

COCC[C@@H]1CN(C(=O)c2cccc3ccccc23)CCN1C[C@H](N)CS [L-745,631]
FTase activity in whole cells (H-ras; whole cells): inhibits FTase activity in whole cells | mode of FTase inhibition (FTase): competitive with respect to H-Ras binding to FTase

O=C(Cc1ccncc1)N1CCC(=C2c3ccc(Cl)cc3CCc3cccnc32)CC1 [SCH-44342]
mode of FTase inhibition (FTase): competitive inhibitor of FTase

(bz-(0)-His-Tyr-Ser [PD-15169]
FTase inhibition (FTase): inhibits FTase activity

farnesylmethyl-hydroxyphosphinylmethyl phosphoric acid
FTase inhibition (FTase): inhibit FTase
